Paper PMC9521028, “Lengthening the Guanidine–Aryl Linker of Phenylpyrimidinylguanidines Increases Their Potency as Inhibitors of FOXO3-Induced Gene Transcription” (ACS Omega, 2022)
In brackets after ≈: the same amount, converted by molar mass. Entries after “also recorded” stand apart in the source; their conditions may differ.

Key:
[1] = Estimation of compound solubility in water (saturated solution, UV-vis); type: physicochemical; settings: for solubility at 48 h: aqueous buffer, thermodynamic from solid, 20 mM phosphate (pH 6.5) and 50 mM KCl buffer at 23 °C
Method: To estimate the solubility, we prepared saturated solutions of the compounds by adding 5 mg of each selected compound to 700 μL of 20 mM phosphate buffer (pH 6.5) containing 50 mM KCl. After 48 h of gentle agitation at room temperature (RT), the solutions were spun down, and the supernatant was filtered through 0.2 μm of SPARTAN 13/0.2 RC filter units (Merck KgaA, Darmstadt, Germany) and diluted 100–200× in the same phosphate buffer. The diluted solutions were transferred into the quartz cuvette, recording UV–vis absorption spectra in the range from 200 to 600 nm on a UV-1800 UV/visible scanning spectrophotometer (Shimadzu, Kyoto, Japan) at room temperature. The compound concentrations were estimated by the single point calibration using the absorption at wavelengths higher than 240 nm outside of DMSO absorption of 2000× diluted 50 mM DMSO-dissolved stock solution in phosphate buffer.

[2] = system: FOXO3 binding to the promoter region of DEPP1 in SH-EP/FOXO3 cells; test: DEPP1-luciferase reporter assay of FOXO3 transcriptional activity; type: cell-based; settings: for potency in blocking FOXO3 binding to the promoter region of DEPP1: 25 and 12.5 μM compound; for potency in blocking FOXO3 binding to the promoter region of DEPP1, compared with 5ca: initial screen, 50 μM compound; for efficiency of blocking FOXO3 binding to the promoter region of DEPP1: lower concentrations, down to 0.78 μM; for inhibitory potency on target gene activation by FOXO3 (in words): summary of the reporter data, Figures 2, S2, S3
Method: (§1) The ability of these compounds to inhibit FOXO3 transcriptional activity was further examined by assessing their effect on FOXO3 binding to the promoter region of decidual protein induced by progesterone 1 (DEPP1) after transfecting a DEPP1-luciferase reporter plasmid into SH-EP neuroblastoma cells stably expressing a 4-hydroxy-tamoxifen (4OHT)-regulated FOXO3(A3)ERtm transgene. […] In parallel, the toxicity of the compounds was tested by assessing their effect on endogenous DEPP1 and actin promoters in SH-EP cells.
Transcriptional activation of the DEPP1 promoter by conditional FOXO3 was assessed after transfection of a DEPP1-luciferase reporter plasmid pGS c10orf10 Prom wt (DEPP1-LUC)[20] into SH-EP/FOXO3 cells using the JetPrime reagent (Polyplus, Berkeley). After 24 h of transfection, mTFP fluorescent protein expression from a cotransfected expression vector was assessed by live cell fluorescence microscopy to verify equal transfection rates before seeding cells into 24-well plates. After 48 h of transfection, the cells were pretreated with indicated concentrations of each compound (30 min) before adding 100 nM 4-hydroxy-tamoxifen (4OHT) for 3 h to activate ectopic FOXO3. Firefly-luciferase was analyzed using the Luciferase Assay System (Promega, Madison). Luminescence intensity was measured in a Hidex Chameleon—Multilabel Microplate Reader (Hidex, Turku, Finland).

[3] = system: endogenous DEPP1 and actin promoters in SH-EP cells; test: Toxicity control: endogenous DEPP1 and actin promoter luciferase reporters; type: cell-based
Method: as §1
For this purpose, 2 × 10^6 SH-EP cells were transfected with either a DEPP1-LUC-reporter plasmid or an actin-LUC reporter plasmid using JetPrime reagent (Polyplus, Berkeley). Actin-LUC was constructed by inserting a 1.3 kb fragment of the chicken β actin promoter into pGL3-luc reporter vector (Promega, Madison). After 24 h of transfection, the cells were seeded into 24-well plates. After another 24 h, the cells were pretreated with indicated concentrations of compound for 3.5 h. Firefly-luciferase was analyzed using the Luciferase Assay System (Promega, Madison). Luminescence intensity was measured in a Hidex Chameleon—Multilabel Microplate Reader (Hidex, Turku, Finland).

[4] = system: FOXO3-induced apoptotic cell death in SH-EP/FOXO3 neuroblastoma cells; test: Resazurin early cell death evaluation assay; type: cell-based; settings: for IC50: Neuroblastoma cell, 100 nM 4OHT, 24 h, approximate, toxicity prevented accurate determination, read-out: IC50, inhibition of FOXO3-induced cell death; for IC50 / concentration above which the compound is toxic (spontaneous cell death): SH-EP/FOXO3 cells; for fold lower IC50 than that of 5ca: resazurin assay, ratio to 5ca IC50 of ∼8 μM
Method: Moreover, we also attempted to determine the IC50 values of 5ci, 5cj, and 5db using a resazurin early cell death evaluation assay in cells expressing a conditional FOXO3 allele that triggers apoptotic cell death upon activation.
Neuroblastoma cells SH-EP/FOXO3 were seeded into 96-well plates and treated with concentrations 0.05, 0.1, 0.2, 0.39, 0.78, 1.56, 3.125, 6.25, 12.5, 18.75, and 25 μM of 5ca and its derivatives 30 min before activating ectopic FOXO3 by 100 nM 4OHT. For 5ca derivatives, concentrations above 3.125 μM had to be excluded from the analysis due to spontaneous cell death induction. Resazurin salt (Sigma-Aldrich s.r.o., St. Louis, Missouri) was diluted to a final concentration of 0.01% (wt/vol), and 20 μL of this dilution was added to 200 μL of the cell culture in each well 24 h after FOXO3 activation. Resazurin is reduced in viable cells to red-fluorescent resoflurin, which was quantified in a Hidex Chameleon—Multilabel Microplate Reader (Hidex, Turku, Finland) at filter settings 544 nm Ex/616 nm Em.

FOXO3 = system: FOXO3; set-up: method as in PMID 31591479, PMID 31789593; settings: inhibit the transcriptional program of FOXO3; cited from earlier work

| SMILES | solubility in water (in words) [1] | solubility at 48 h [1] | potency in blocking FOXO3 binding to the promoter region of DEPP1 [2] | potency in blocking FOXO3 binding to the promoter region of DEPP1, compared with 5ca [2] | inhibitory potency on target gene activation by FOXO3 (in words) [2] | further results |
| --- | --- | --- | --- | --- | --- | --- |
| CCCOc1ccc(NC(=N)Nc2nc(C)cc(NCCc3ccccc3)n2)cc1 [5db, 1-(4-Methyl-6-(phenethylamino)pyrimidin-2-yl)-3-(4-propoxyphenyl)guanidine] | low solubility; also recorded: very low solubility | 300 µM (≈ 121 µg/mL) | the most potent compounds | more potent than 5ca | strongest inhibitor | efficiency of blocking FOXO3 binding to the promoter region of DEPP1 [2]: more efficiently than 5cg, 5da, and 5dc; toxicity compared with other derivatives ([3]; higher concentrations, Figure 2): more toxic than 5ci and 5cj at higher concentrations; IC50 [4]: ~500 nM; concentration above which the compound is toxic (spontaneous cell death) [4]: higher than 4 μM; fold lower IC50 than that of 5ca [4]: 8–16 × |
| Cc1cc(C)nc(NC(=N)Nc2ccccc2)n1 [5cb, 1-(4,6-Dimethylpyrimidin-2-yl)-3-phenylguanidine] | insufficient solubility in water | 4000 µM (≈ 965 µg/mL) | – | less potent FOXO3 inhibitors than 5ca | lower ability to inhibit FOXO3 | – |
| CCCOc1ccc(NC(=N)Nc2nc(C)cc(Cl)n2)cc1 [5ba, 1-(4-Chloro-6-methylpyrimidin-2-yl)-3-(4-propoxyphenyl)guanidine] | – | 20000 µM (≈ 6400 µg/mL) | – | more potent than 5ca | – | – |
| Cc1cc(C)nc(NC(=N)NCc2ccc(F)cc2)n1 [5ch, 1-(4,6-Dimethylpyrimidin-2-yl)-3-(4-fluorobenzyl)guanidine] | sufficient solubility in water | 6000 µM (≈ 1640 µg/mL) | – | less potent FOXO3 inhibitors than 5ca | did not increase the inhibitory potency | – |
| CCCOc1ccc(NC(=N)Nc2nc(C)cc(NCc3ccccc3)n2)cc1 [5da, 1-(4-(Benzylamino)-6-methylpyrimidin-2-yl)-3-(4-propoxyphenyl)guanidine] | – | 200 µM (≈ 78.1 µg/mL) | the most potent compounds | more potent than 5ca | – | – |
| CCCCNc1cc(C)nc(NC(=N)Nc2ccc(OCCC)cc2)n1 [5dc, 1-(4-(Butylamino)-6-methylpyrimidin-2-yl)-3-(4-propoxyphenyl)guanidine] | low solubility | 1700 µM (≈ 606 µg/mL) | the most potent compounds | more potent than 5ca | slightly lower inhibitory efficacy than 5cj, 5ci, and 5db | – |
| Cc1cc(C)nc(NC(=N)NCc2ccccc2)n1 [5cc, 1-Benzyl-3-(4,6-dimethylpyrimidin-2-yl)guanidine] | significantly increased solubility in water | 10000 µM (≈ 2550 µg/mL) | – | less potent FOXO3 inhibitors than 5ca | lower ability to inhibit FOXO3 | – |
| Cc1ccc(CNC(=N)Nc2nc(C)cc(C)n2)cc1 [5cd, 1-(4,6-Dimethylpyrimidin-2-yl)-3-(4-methylbenzyl)guanidine] | improved solubility | 7000 µM (≈ 1890 µg/mL) | – | – | did not increase the inhibitory potency | – |
| CCOc1cc(CC(=O)N[C@@H](CC(C)C)c2ccccc2N2CCCCC2)ccc1C(=O)O [repaglinide] | – | – | – | – | – | concentration range of FOXO3 inhibition in cancer cells (FOXO3): low micromolar range |
| Cc1cc(C)nc(NC(=N)NCc2ccc(C(C)(C)C)cc2)n1 [5cg, 1-(4-(tert-Butyl)benzyl)-3-(4,6-dimethylpyrimidin-2-yl)guanidine] | limited the solubility | 200 µM (≈ 62.3 µg/mL) | the most potent compounds | more potent than 5ca | increased FOXO3 inhibition | – |
| CC1(C)[C@@H](OC(=O)CCC(=O)O)CC[C@]2(C)[C@H]3C(=O)C=C4[C@@H]5C[C@@](C)(C(=O)O)CC[C@]5(C)CC[C@@]4(C)[C@]3(C)CC[C@@H]12 [carbenoxolone] | – | – | – | – | – | concentration range of FOXO3 inhibition in cancer cells (FOXO3): low micromolar range |
| CCCOc1ccc(NC(=N)Nc2nc(C)cc(O)n2)cc1 [5aa, 1-(4-Hydroxy-6-methylpyrimidin-2-yl)-3-(4-propoxyphenyl)guanidine] | – | 100 µM (≈ 30.1 µg/mL) | – | – | – | – |
| Cc1cc(C)nc(NC(=N)NCc2cccc3ccccc23)n1 [5ci, 1-(4,6-Dimethylpyrimidin-2-yl)-3-(naphthalen-1-ylmethyl)guanidine] | low solubility | 700 µM (≈ 214 µg/mL) | the most potent compounds | more potent than 5ca | increased FOXO3 inhibition | efficiency of blocking FOXO3 binding to the promoter region of DEPP1 [2]: more efficiently than 5cg, 5da, and 5dc; inhibition of FOXO3-mediated transcription ([2]; lowest concentration tested, 0.78 μM): significantly inhibited; effect on endogenous DEPP1 and actin promoters (toxicity markers) ([3]; 0.78 μM, SH-EP cells): without any effect; IC50 [4]: ~500 nM; concentration above which the compound is toxic (spontaneous cell death) [4]: higher than 4 μM; fold lower IC50 than that of 5ca [4]: 8–16 × |
| Cc1cc(C)nc(NC(=N)NCc2ccccc2C)n1 [5cf, 1-(4,6-Dimethylpyrimidin-2-yl)-3-(2-methylbenzyl)guanidine] | – | 2000 µM (≈ 539 µg/mL) | – | – | did not increase the inhibitory potency | – |
| Cc1cccc(CNC(=N)Nc2nc(C)cc(C)n2)c1 [5ce, 1-(4,6-Dimethylpyrimidin-2-yl)-3-(3-methylbenzyl)guanidine] | – | 4000 µM (≈ 1080 µg/mL) | – | less potent FOXO3 inhibitors than 5ca | did not increase the inhibitory potency | – |
